Measurements from patent EP0638125B1, “AC[…] A PRODUCER OF RAPAMYCIN” (PFIZER INC., priority 1992, dated 1993).
Converted amounts (≈) assume the structure as drawn.

Columns and labels:
Assay type in all cases: cell-based
[1] = cytotoxicity, standard procedure (Mosmann)
Excerpt: (§1) The IC₅₀ values (µg/ml) of MLR and cytotoxicity for rapamycin were 7 x 10⁻³ and >3.0, respectively when tested by standard procedures for MLR (D. P. Dubey et al., Manual of Clinical Laboratory Immunology, 3rd Ed., pp. 847-858, 1986) and for cytotoxicity (T. Mosmann, J., J. Immunol. Methods, 65, 55-63, 1983).

Candida albicans = assay: antifungal activity, agar plate dilution method with paper disk; details: 40 µg/disk, 8 mm diameter paper disk, agar medium for neomycin assay (Difco)
Method: Antifungal activity was determined by an agar plate dilution method using a fungal culture, Candida albicans. The diameter of inhibition zone of rapamycin was 25 mm when tested at 40 µg/disk (8 mm diameter paper disk, Advantic) on an commercially available agar medium for neomycin assay (Difco).

[2] = system: mixed lymphocyte reaction (MLR); assay: mixed lymphocyte reaction (MLR), standard procedure (Dubey et al.); details: read-out: IC₅₀ values of MLR
Excerpt: as §1

CO[C@H]1C[C@@H]2CC[C@@H](C)[C@@](O)(O2)C(=O)C(=O)N2CCCC[C@H]2C(=O)O[C@H]([C@H](C)C[C@@H]2CC[C@@H](O)[C@H](OC)C2)CC(=O)[C@H](C)/C=C(\C)[C@@H](O)[C@@H](OC)C(=O)[C@H](C)C[C@H](C)/C=C/C=C/C=C/1C [rapamycin]
CC50 [1]: > 3 µg/mL
zone of inhibition at 40 µg/disc (Candida albicans): 25 mm
IC50 [2]: 7 ng/mL (≈ 7.66 nM)
